Like-named read-outs stand apart in the source and are kept apart here.
Columns and labels:
A. niger = experiment: Mold resistance of treated wood stakes (ASTM D4445-91), A. niger; type: cell-based, Aspergillus niger 2.242
Description: (§1) The biocide compositions were first tested for the efficacy in preventing mold fungal growth. […] The mold fungi were first prepared by growing the various mold fungi species on 2% malt agar. […] Spore suspensions were transferred to a spray bottle and diluted to 100 milliliters with DI water. The spray bottle was adjusted to deliver 1 milliliter inoculum/spray.
(§2) The biocide compositions were tested for the efficacy in preventing mold fungal growth and compared to the abilities of the commercially used preservatives, fungicides, extracts, and pharmaceuticals in preventing mold fungal growth.
(§3) Specimens (7×20 millimeters cross section by 7 centimeters long) were cut from unseasoned southern yellow pine mill ends from a Mississippi sawmill and stored at 0° C. […] Southern yellow pine oriented strand board (OSB) specimens (11×20 millimeters cross section by 7 centimeters long) were cut from a full sheet of OSB and conditioned to 70% relative humidity. […] Untreated stakes were dipped in DI water and served as Control A for water-based test chemicals. […]
(§4) The biocide compositions were first tested for the efficacy in preventing mold fungal growth. […]

T. viride = experiment: Mold resistance of treated wood stakes (ASTM D4445-91), T. viride; type: cell-based, Trichoderma viride ATCC 20476
Description: as §1, §2, §3, §4

P. chrysogenum = experiment: Mold resistance of treated wood stakes (ASTM D4445-91), P. chrysogenum; type: cell-based, Penicillium chrysogenum PH02
Description: as §1, §2, §3, §4

[1] = Example 2, dip-treated unseasoned southern yellow pine, 4 weeks, scale 0-5 (5 = 100% coverage)

Molecule	Mold Resistance Average Rating, A. niger (A. niger; [1])	Mold Resistance Average Rating, T. viride (T. viride; [1])	Mold Resistance Average Rating, P. chrysogenum (P. chrysogenum; [1])	Mold Resistance Average Rating, A. niger (A. niger)	Mold Resistance Average Rating, T. viride (T. viride)	Mold Resistance Average Rating, P. chrysogenum (P. chrysogenum)
CCC(=O)[O-].CCC(=O)[O-].[Ca+2] [Sample 18, Calcium propionate]	5.0	4.7	5.0			
c1ccc2[nH]c(-c3cscn3)nc2c1 [Sample 47, Thiabendazole]	0.0	0.0	0.0			
O=C[O-].[Na+] [Sample 27, Sodium formate]	4.7	4.0	3.3			
C[C@@H](c1ncncc1F)[C@](O)(Cn1cncn1)c1ccc(F)cc1F [Sample 41, Voriconazole]	0.0	2.4	0.0			
C/C=C/C=C/C(=O)[O-].[K+] [Sample 21, Potassium sorbate]				2.6	2.9	2.6
OC(Cn1cncn1)(Cn1cncn1)c1ccc(F)cc1F [Sample 39, Difluconazole]	5.0	5.0	4.7			
C/C=C/C=C/C(=O)[O-].[K+] [Sample 20, Potassium sorbate]				5.0	4.9	5.0
CCC(=O)[O-].CCC(=O)[O-].[Ca+2] [Sample 17, Calcium propionate]	5.0	4.6	4.9			
C/C=C/C=C/C(=O)[O-].[K+] [Sample 23, Potassium sorbate]				0.0	1.0	0.0
c1ccc2[nH]c(-c3cscn3)nc2c1 [Sample 46, Thiabendazole]	0.0	0.0	0.0			
C/C=C/C=C/C(=O)[O-].[K+] [Sample 24, Potassium sorbate]				0.0	0.0	1.7
Thujaplicin (isopropyltropolone) [Sample 29]	5.0	1.0	0.0			
c1ccc2[nH]c(-c3cscn3)nc2c1 [Sample 45, Thiabendazole]	0.0	2.5	0.0			
O=NO [Sample 28, Sodium nitrite]	5.0	5.0	4.9			
O=C[O-].[Na+] [Sample 25, Sodium formate]	5.0	4.3	4.6			
CC(C)c1cccc(O)c(=O)c1 [Sample 30, Thujaplicin (isopropyltropolone)]	0.0	0.0	0.0			
C/C=C/C=C/C(=O)[O-].[K+] [Sample 22, Potassium sorbate]				0.0	0.7	0.0
CCC(=O)[O-].CCC(=O)[O-].[Ca+2] [Sample 19, Calcium propionate]	0.9	3.3	2.0			
Clc1ccccc1C(c1ccccc1)(c1ccccc1)n1ccnc1 [Sample 40, Clotrimazole]	5.0	3.7	3.4			
C[C@@H](c1ncncc1F)[C@](O)(Cn1cncn1)c1ccc(F)cc1F [Sample 43, Voriconazole]	0.1	0.4	0.0			
O=C([O-])c1ccccc1.[Na+] [Sample 13, Sodium benzoate]	2.9	3.1	2.4			
Clc1ccc(COC(Cn2ccnc2)c2ccc(Cl)cc2Cl)c(Cl)c1 (stereo not drawn) [Sample 34, Miconazole]	0.0	0.0	0.0			
O=C[O-].[Na+] [Sample 26, Sodium formate]	5.0	4.1	4.7			
C[C@@H](c1ncncc1F)[C@](O)(Cn1cncn1)c1ccc(F)cc1F [Sample 44, Voriconazole]	0.0	0.1	0.0			
O=C([O-])c1ccccc1.[Na+] [Sample 14, Sodium benzoate]	1.7	1.0	0.0			
O=C([O-])c1ccccc1.[Na+] [Sample 16, Sodium benzoate]	0.0	0.7	0.0			
C[C@@H](c1ncncc1F)[C@](O)(Cn1cncn1)c1ccc(F)cc1F [Sample 42, Voriconazole]	0.0	1.3	0.0			
O=C([O-])c1ccccc1.[Na+] [Sample 15, Sodium benzoate]	0.4	0.4	0.0			

Reference: patent US7858125B2, “Multi-component biocide composition for wood protection” (priority 2006, dated 2010)
